# Assay results from US20240415858A1, “PROMOTING MYELINATION BY N-ACETYLGLUCOSAMINE AND MODULATION OF N-GLYCAN BRANCHING” (THE REGENTS OF THE UNIVERSITY OF CALIFORNIA, priority 2021, published 2024).
# Columns and labels:
# newborn PL/J mice = experiment: Primary myelination in newborn pups, GIcNAc given to pregnant/lactating mothers in drinking water; type: in vivo, mouse
# Procedure: GIcNAc treatment of mouse pups—GIcNAc (1 mg/mL) in drinking water was provided to pregnant PLJ mothers or mothers who recently delivered pups and were nursing their young. After the treatment period, pups were anesthetized with isoflurane and cardiac perfused with PBS. Pup and fetal brains were removed and homogenized by trituration using glass pipettes in PBS with 5% Fetal Bovine Serum (FBS).
# Cells were then stained with antibodies and analyzed by flow cytometry using antibodies described herein. For immunofluorescence analysis of pup brains, pups were quickly decapitated, brains harvested and fixed in 4% paraformaldehyde overnight.
# For neural stem cell (NSC) immunofluorescence, whole neurospheres were seeded onto laminin-coated coverslips (Neuvitro) in proliferation medium. After 24 hours, proliferation media was removed and replaced with differentiation medium (same components as proliferation medium but excluding EGF, bFGF, and heparin) to induce differentiation. For analysis of mouse brains, brains were incubated in 30% sucrose for at least 72 hours, embedded in OCT (Tissue-tek), frozen for at least 48 hours at −80° C., and then cut at 40 microns on a cryostat. Multiple sections from −1 bregma to −2.5 bregma were then stained with antibodies for MBP (1:100; MAB386, Millipore), Olig2 (1:200; AB9610, Millipore), CC1 (1:100; OP90, Millipore), degraded MBP (1:200, AB5864, Millipore) and Amyloid Precursor Protein (APP, 1:200; clone 22C11). After overnight incubation with primary antibody, tissues were washed and incubated with secondary antibodies: goat anti-rat Alexa-fluor 488 (1:200, Thermofisher), goat anti-rabbit TxRd (1:200, Thermofisher). APP is a marker for neuro-axonal damage while co-staining for CC1 and Olig2 are markers of mature oligodendrocytes. In order to examine the amount of myelin, slices were incubated in Fluoromyelin (1:300; F34651, Thermofisher) for 45 minutes. Images were acquired on a Keyence fluorescence microscope. Mean fluorescence intensity of the medial corpus callosum was measured using ImageJ.
# To assess whether oral GIcNAc promotes oligodendrogenesis in vivo in the absence of inflammation, primary myelination was examined in mice during the early perinatal period. GIcNAc or vehicle was provided to pregnant/lactating female mice from E12.5, postnatal day 3 (P3) or P5 through to P8. Indeed, oral GIcNAc increased N-glycan branching in PDGFRα^+ cells as well as the number of pre-oligodendrocytes (PDGFRα^+O4^+), immature oligodendrocytes (PDGFRα-O4^+) and mature oligodendrocytes (MBP*), with little effect on the number of OPC's ([…]) (FIG. 2B and FIG. 6A).
# [1] = tested on: blasting/activated CD25+CD4+ T cells; experiment: Phase 1 trial: N-glycan branching in T cells by L-PHA flow cytometry; type: in vivo, human; settings: for average increase of L-PHA binding in blasting/activated CD25+CD4+ T cells: oral
# Procedure: Based on its immunomodulatory effects, a FDA approved (IND 122235) dose escalation was carried out, open-label NIH funded Phase 1 mechanistic clinical trial of oral GIcNAc in MS patients (RRMS and PMS) on glatiramer acetate and not in acute relapse, with the primary endpoint an increase in N-glycan branching in T cells. This endpoint was used as a surrogate marker for GIcNAc's biological activity. Three doses were evaluated: 1 g TID (3 g total, n=13), 2 g TID (6 g total, n=18) and 4 g TID (12 g total, n=16). Subjects had baseline blood drawn weekly four times, then started on oral GIcNAc with 4 weekly blood draws (FIG. 8A).
# To assess the primary endpoint (increased N-glycan branching in T cells), flow cytometry was used to assess binding of the plant lectin L-PHA (Phaseolus vulgaris leukoagglutinin) to T cells. L-PHA is a highly sensitive and specific measure of N-glycan branching. L-PHA binding was increased in blasting/activated CD25^+CD4^+ T cells in the 12 g (p=0.0065) and 6 g (p=0.037) but not the 3 g cohort, with average increases of 7%, 3% and 1.7% respectively (FIGS. 8H and 8I); the latter indicative of a dose response.
# [2] = mothers treated from E12.5, P3 or P5 to P8, pup brains
smiles,measurement,setting,value
"CC(=O)N[C@H]1C(O)O[C@H](CO)[C@@H](O)[C@@H]1O (stereo partly drawn) [GIcNAc, N-acetylglucosamine]",primary myelination: staining for myelin (fluoromyelin),newborn PL/J mice; P3-8,increased
same,primary myelination: staining for myelin basic protein (MBP),newborn PL/J mice; P3-8,increased
same,N-glycan branching in PDGFRα+ cells,newborn PL/J mice; [2],increased
same,number of OPC's (PDGFRα−O4+),newborn PL/J mice; [2],little effect
same,number of immature oligodendrocytes (PDGFRα-O4+),newborn PL/J mice; [2],increased
same,number of mature oligodendrocytes (MBP),newborn PL/J mice; [2],increased
same,number of pre-oligodendrocytes (PDGFRα+O4+),newborn PL/J mice; [2],increased
same,"L-PHA binding in activated CD25+CD8+ T cells, resting CD25-CD4+ and CD25-CD8+ T cells and activated/resting CD19+ B cells","[1]; oral GIcNAc, data not shown",no increase
same,average increase of L-PHA binding in blasting/activated CD25+CD4+ T cells,[1]; 3 g cohort (not significant),1.7%
same,average increase of L-PHA binding in blasting/activated CD25+CD4+ T cells,[1]; 6 g cohort (p=0.037),3%
same,average increase of L-PHA binding in blasting/activated CD25+CD4+ T cells,[1]; 12 g cohort (p=0.0065),7%
same,L-PHA binding to blasting/activated CD25+CD4+ T cells during the washout period vs pre-GIcNAc or during GIcNAc,"[1]; post-GIcNAc, 6 g and 12 g cohorts",no significant difference
